According to patent US7265107B2, “Rifamycin C-11 oxime cyclo derivatives effective against drug-resistant microbes” (Cumbre Pharmaceuticals Inc., priority 2004, dated 2007):
In brackets after ≈: the same amount, converted by molar mass. Read-outs that look alike come from different tables or passages of the source.

Key:
Assay type in all cases: cell-based
[1] = tested on: Enterococcus faecalis ATCC29212; conditions: rifS, BHI Broth, 37° C., read-out: Antimicrobial activity (MIC)
[2] = MIC, microbroth dilution, panel of rifampin-susceptible Gram-positive strains; conditions: across the five rifampin-susceptible Gram-positive strains
Description: (§1) Representative compounds were assayed for antimicrobial activity as follows: Minimum Inhibitory Concentrations (“MICs”) were determined by the microbroth dilution method as per NCCLS guidelines (National Committee for Clinical Laboratory Standards. 2000. Methods for dilution antimicrobial susceptibility tests for bacteria that grow aerobically, 5th ed. M7-A5. National Committee for Clinical Laboratory Standards, Wayne, Pa.), except that all growth incubations were conducted at 37° C. Bacterial cultures were tested in the following bacteriological media: S. aureus, S. epidermidis, and E. coli in Cation-Adjusted Mueller-Hinton Broth, S. pneumoniae in THY Broth supplemented with 1 mg/mL catalase under 5% CO2 atmosphere, S. pyogenes in THY Broth, E. faecalis in BHI Broth, H. influenzae in BHI Broth supplemented with 0.75 μL of 1 mg/mL NAD and 150 μL of 1 mg/ml hematin per 5 mL, and M. smegmatis in Middlebrook Broth plus ADC Enrichment.
S. aureus ATCC […], S. epidermidis ATCC 12228, S. pneumoniae ATCC6303, S. pyogenes ATCC 19615 and E. faecalis ATCC 29212 are rifampin-susceptible Gram-positive strains. […] The compounds of the current invention show further improved activity against these strains with MICs as low as 0.0005 μg/ml.

[3] = tested on: Streptococcus pyogenes ATCC19615; conditions: rifS, THY Broth, 37° C., read-out: Antimicrobial activity (MIC)
[4] = tested on: Staphylococcus aureus EN1252a gvrA^S84L grlA^S80F; assay: microbe, parasite or virus in culture; conditions: read-out: Antimicrobial activity (MIC)
Description: as §1
S. aureus EN1252a gyrA^S84L grlA^S80F is a quinolone-resistant strain due to double mutations to the genes confer DNA gyrase and topoisomerase IV.

[5] = tested on: Haemophilus influenzae ATCC10211; conditions: rifS, BHI Broth with NAD and hematin, 37° C., read-out: Antimicrobial activity (MIC)
[6] = tested on: Streptococcus pneumoniae ATCC6303; conditions: rifS, THY Broth with 1 mg/mL catalase, 5% CO2, 37° C., read-out: Antimicrobial activity (MIC)
[7] = cipR, Cation-Adjusted Mueller-Hinton Broth, 37° C.

With CO[C@H]1/C=C/O[C@@]2(C)Oc3c(C)c(O)c4c(O)c(c(/C=N/N5CCN(C)CC5)c(O)c4c3C2=O)NC(=O)/C(C)=C\C=C\[C@H](C)[C@H](O)[C@@H](C)[C@@H](O)[C@@H](C)[C@H](OC(C)=O)[C@@H]1C [rifampin, reference compound] the MIC [1] was 1000 ng/mL (≈ 1220 nM), the MIC [2] was 13 to 1000 ng/mL (≈ 15.8 to 1220 nM) and the MIC [3] was 13 ng/mL (≈ 15.8 nM). It also gave an MIC [4] of 4 ng/mL (≈ 4.86 nM), an MIC [5] of 240 ng/mL (≈ 292 nM) and an MIC [6] of 61 ng/mL (≈ 74.1 nM).
In the case of CO[C@H]1/C=C/O[C@@]2(C)Oc3c(C)c(O)c4c(=O)c(c5oc6cc(N(CCO)CCO)cc(O)c6nc-5c4c3/C2=N/O)NC(=O)/C(C)=C\C=C\[C@H](C)[C@H](O)[C@@H](C)[C@@H](O)[C@@H](C)[C@H](OC(C)=O)[C@@H]1C [Example 18, 11-Deoxy-11-hydroxyimino-1′,4-didehydro-1-deoxy-1,4-dihydro-3′-hydroxy-5′-[bis-(2-hydroxy-ethyl)-amino]-1-oxo-rifamycin VIII], the MIC [1] is reported as 500 to 31200 ng/mL (≈ 544 to 34000 nM), the MIC [4, 7] is reported as 0.5 to 125 ng/mL (≈ 0.544 to 136 nM) and the MIC [5] is reported as 125 to 8000 ng/mL (≈ 136 to 8710 nM). The MIC [6] was 0.06 to 31 ng/mL (≈ 0.0653 to 33.7 nM).
In the case of COc1c(N2CCN(C(=O)CO/N=C3/c4c5c(C)c(O)c6c4C4=NC7(CCN(CC(C)C)CC7)NC4=C(NC(=O)/C(C)=C\C=C\[C@H](C)[C@H](O)[C@@H](C)[C@@H](O)[C@@H](C)[C@H](OC(C)=O)[C@H](C)[C@@H](OC)/C=C/O[C@@]3(C)O5)C6=O)C(C)C2)c(F)cc2c(=O)c(C(=O)O)cn(C3CC3)c12 (stereo partly drawn) [Example 22, 11-Deoxy-11-{2-oxo-2-[2-methyl4-(3-carboxy-1-cyclopropl-2-methoxy-6-fluoro-4-oxo-1,4-dihydroquinolin-7-yl)piperazin-1-yl]ethoxyimino}-1′,4-didehydro-1-deoxy-1,4-dihydro-5′-(2-methylpropyl)-1-oxo-rifamycin XIV], the MIC [1] is reported as 500 to 31200 ng/mL (≈ 391 to 24500 nM), the MIC [4, 7] is reported as 0.5 to 125 ng/mL (≈ 0.391 to 97.9 nM) and the MIC [5] is reported as 125 to 8000 ng/mL (≈ 97.9 to 6260 nM). For the same compound, the MIC [6] was 0.06 to 31 ng/mL (≈ 0.047 to 24.3 nM).
CO[C@H]1/C=C/O[C@@]2(C)Oc3c(C)c(O)c4c(=O)c(c5oc6cc(N7CCN(C)CC7)cc(O)c6nc-5c4c3/C2=N/O)NC(=O)/C(C)=C\C=C\[C@H](C)[C@H](O)[C@@H](C)[C@@H](O)[C@@H](C)[C@H](OC(C)=O)[C@@H]1C [Example 7, 11-Deoxy-11-hydroxyimino-1′,4-didehydro-1-deoxy-1,4-dihydro-3′-hydroxy-5′-(4-methyl-i-piperazinyl)-1-oxo-rifamycin VIII] showed an MIC [1] of 500 to 31200 ng/mL (≈ 547 to 34200 nM), an MIC [4, 7] of 0.5 to 125 ng/mL (≈ 0.547 to 137 nM) and an MIC [5] of 125 to 8000 ng/mL (≈ 137 to 8750 nM). For the same compound, the MIC [6] was 0.06 to 31 ng/mL (≈ 0.0656 to 33.9 nM).
